Read-outs that look alike come from different tables or passages of the source.

Experiment [1] deals with T1, EP3 membrane (EP3 receptor) (Homo sapiens, UniProt P43115).
T1 construct: purchased Millipore HTS092M
T1 sequence (P43115 1-390): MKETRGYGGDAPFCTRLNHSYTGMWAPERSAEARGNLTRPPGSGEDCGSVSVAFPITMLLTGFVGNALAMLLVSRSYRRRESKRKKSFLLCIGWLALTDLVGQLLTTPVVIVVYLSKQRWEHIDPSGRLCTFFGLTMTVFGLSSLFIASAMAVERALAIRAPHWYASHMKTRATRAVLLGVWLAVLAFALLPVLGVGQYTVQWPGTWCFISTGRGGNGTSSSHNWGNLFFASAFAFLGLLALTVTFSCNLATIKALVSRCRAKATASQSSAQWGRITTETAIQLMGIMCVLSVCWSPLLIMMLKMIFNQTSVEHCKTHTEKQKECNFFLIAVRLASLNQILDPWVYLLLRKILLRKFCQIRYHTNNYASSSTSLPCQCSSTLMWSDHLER
Briefly: [3H]-PGE2 binding; EP3 competition binding (SPA). The essentials: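 Ki derived from one-site nonlinear regression of scintillation proximity counts after 2 h room-temperature equilibration. Serially diluted (1:3) compounds competed against [3H]-PGE2 (2 nM) for EP3 receptor membranes (2 μg/well) in pH 7.4 Tris buffer with 10 mM MgCl2, 1 mM EDTA, 0.1% DMSO.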

Experiment [2] deals with T2, CHO cells over-expressing the EP3 receptor (Homo sapiens, UniProt P43115).
T2 construct: expressed in transfected cells; host or cells: CHO cells
T2 sequence (P43115 1-390): T1 sequence (P43115 1-390)
As to the kind of experiment: CHO cell cAMP assay; EP3 cAMP antagonist dose response (sulprostone reference), HTRF. The settings on record: sulprostone 700 nM (EC80) and FSK 2 μM (EC70); read-out: CHO_cAMP IC50. The experiment is classed as cell-based. The essentials:
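EP3-overexpressing CHO cells pre-incubated with test compound, then stimulated 30 min at 37 °C with FSK (2 μM, EC70) plus sulprostone (700 nM, EC80); antagonism seen as restored cAMP. cAMP measured by HTRF 665/615 ratio, converted via on-plate standard curve. IC50 from Hill fit of 11-point dosing.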

In experiment [1], `O=C(NS(=O)(=O)c1ccc(Cl)cc1)OC/C=C1\CCCc2cnn(Cc3ccc(Cl)cc3Cl)c21` [Compound #2, (E)-2-(1-(2,4-dichlorobenzyl)-1,4,5,6-tetrahydro-7H-indazol-7-ylidene)ethyl ((4-chlorophenyl)sulfonyl)carbamate] showed a Ki of 11 nM. In addition, the IC50 in experiment [2] worked out at 92 nM.
The corresponding values for `O=C(NC/C(F)=C1\CCCn2nnc(Cc3ccccc3)c21)NS(=O)(=O)c1cc(Cl)c(Cl)s1` [Compound #129, (Z)—N-((2-(3-benzyl-6,7-dihydro-[1,2,3]triazolo[1,5-a]pyridin-4(5H)-ylidene)-2-fluoroethyl)carbamoyl)-4,5-dichlorothiophene-2-sulfonamide] are 29 nM and 548 nM.
The corresponding values for `Cc1cc(S(=O)(=O)NC(=O)NC/C(F)=C2\CCCc3cnn(Cc4ccc(Cl)cc4Cl)c32)sc1Cl` [Compound #149, (Z)-5-chloro-N-((2-(1-(2,4-dichlorobenzyl)-1,4,5,6-tetrahydro-7H-indazol-7-ylidene)-2-fluoroethyl)carbamoyl)-4-methylthiophene-2-sulfonamide] are 2 nM and 6 nM.
The corresponding values for `O=C(NC/C=C1\CCCc2cnn(Cc3ccc(Cl)cc3Cl)c21)NS(=O)(=O)c1cc2ccccc2s1` [Compound #27, (E)-N-((2-(1-(2,4-dichlorobenzyl)-1,4,5,6-tetrahydro-7H-indazol-7-ylidene)ethyl)carbamoyl)benzo[b]thiophene-2-sulfonamide] are 5 nM and 13 nM.
For `O=C(NC/C=C1\CCCc2cnn(Cc3ccc(Cl)cc3Cl)c21)NS(=O)(=O)c1cc(Cl)c(Cl)s1` [Compound #7, (E)-4,5-dichloro-N-((2-(1-(2,4-dichlorobenzyl)-1,4,5,6-tetrahydro-7H-indazol-7-ylidene)ethyl)carbamoyl)thiophene-2-sulfonamide], affinity in experiment [1] (unit nM) was put at a Ki of 0.5 nM. Moreover, the IC50 in experiment [2] came to 11 nM.
In experiment [1], `O=C(NC/C=C1\CCCn2nnc(-c3ccc(C(F)(F)F)cc3)c21)NS(=O)(=O)c1cc(Cl)c(Cl)s1` [Compound #155, (E)-4,5-dichloro-N-((2-(3-(4-(trifluoromethyl)phenyl)-6,7-dihydro-[1,2,3]triazolo[1,5-a]pyridin-4(5H)-ylidene)ethyl)carbamoyl)thiophene-2-sulfonamide] had a Ki of 2 nM. Moreover, the IC50 in experiment [2] was found to be 4 nM.
For `O=C(NC/C(F)=C1\COCc2cnn(Cc3ccc(Cl)cc3Cl)c21)NS(=O)(=O)c1ccc(Cl)cc1` [Compound #83, (E)-4-chloro-N-((2-(1-(2,4-dichlorobenzyl)-1,4-dihydropyrano[4,3-c]pyrazol-7(6H)-ylidene)-2-fluoroethyl)carbamoyl)benzenesulfonamide], the Ki in experiment [1] was 97 nM. The IC50 in experiment [2] was found to be 266 nM.
On to `O=C(NC/C(F)=C1\CCCc2cnn(Cc3ccc(Cl)cc3Cl)c21)NS(=O)(=O)c1cc(Cl)c(Cl)s1` [Compound #40, (Z)-4,5-dichloro-N-((2-(1-(2,4-dichlorobenzyl)-1,4,5,6-tetrahydro-7H-indazol-7-ylidene)-2-fluoroethyl)carbamoyl)thiophene-2-sulfonamide], for which the affinity in experiment [1], expressed as Ki, was 1 nM. In addition, the half-maximal inhibitory concentration (IC50) in experiment [2] was 1 nM.
On to `O=C(NC/C(F)=C1/CCCc2onc(Cc3ccc(Cl)cc3Cl)c21)NS(=O)(=O)c1cc(Cl)c(Cl)s1` [Compound #128, (E)-4,5-dichloro-N-((2-(3-(2,4-dichlorobenzyl)-6,7-dihydrobenzo[d]isoxazol-4(5H)-ylidene)-2-fluoroethyl)carbamoyl)thiophene-2-sulfonamide], for which, in experiment [1], the Ki is 532 nM. Moreover, the IC50 in experiment [2] came to 8400 nM.
The corresponding values for `COc1ccc(Cl)cc1S(=O)(=O)NC(=O)NC/C(F)=C1/c2c(cnn2Cc2ccc(Cl)cc2Cl)CCC1F` (stereo not drawn) [Compound #103, (E)-5-chloro-N-((2-(1-(2,4-dichlorobenzyl)-6-fluoro-1,4,5,6-tetrahydro-7H-indazol-7-ylidene)-2-fluoroethyl)carbamoyl)-2-methoxybenzenesulfonamide] are 54 nM and 228 nM.
The corresponding values for `O=C(NC/C(F)=C1/c2c(cnn2Cc2ccc(Cl)cc2Cl)CCC1F)NS(=O)(=O)c1ccc(Cl)cc1` (stereo not drawn) [Compound #101, (E)-4-chloro-N-((2-(1-(2,4-dichlorobenzyl)-6-fluoro-1,4,5,6-tetrahydro-7H-indazol-7-ylidene)-2-fluoroethyl)carbamoyl)benzenesulfonamide] are 53 nM and 144 nM.
Take `COc1ccc(-n2ncc3c2/C(=C/CNC(=O)NS(=O)(=O)c2cc(Cl)c(Cl)s2)CCC3)cn1` [Compound #107, (E)-4,5-dichloro-N-((2-(1-(6-methoxypyridin-3-yl)-1,4,5,6-tetrahydro-7H-indazol-7-ylidene)ethyl)carbamoyl)thiophene-2-sulfonamide]: the inhibitory constant (Ki) in experiment [1] was found to be 2 nM. For the same compound, in experiment [2], the IC50 was found to be 27 nM.
`COc1ccccc1S(=O)(=O)NC(=O)CC/C=C1\CCCc2cnn(Cc3ccc(Cl)cc3Cl)c21` [Compound #44, (E)-4-(1-(2,4-dichlorobenzyl)-1,4,5,6-tetrahydro-7H-indazol-7-ylidene)-N-((2-methoxyphenyl)sulfonyl)butanamide] showed an inhibitory constant (Ki) in experiment [1] of 95 nM. Also, the IC50 in experiment [2] was determined as 177 nM.
As to `O=C(/C=C/C=C1\CCCc2cnn(Cc3ccc(Cl)cc3Cl)c21)NS(=O)(=O)c1cc(Cl)c(Cl)s1` [Compound #6, (E)-4-((E)-1-(2,4-dichlorobenzyl)-1,4,5,6-tetrahydro-7H-indazol-7-ylidene)-N-((4,5-dichlorothiophen-2-yl)sulfonyl)but-2-enamide], the Ki in experiment [1] amounted to 84 nM. Also, in experiment [2], the IC50 was 110 nM.
`O=C(NC/C=C1\CCCc2cn(Cc3ccc4ccccc4c3)nc21)NS(=O)(=O)c1cc(Cl)c(Cl)s1` [Compound #87, (E)-4,5-dichloro-N-((2-(2-(naphthalen-2-ylmethyl)-2,4,5,6-tetrahydro-7H-indazol-7-ylidene)ethyl)carbamoyl)thiophene-2-sulfonamide] returned a Ki in experiment [1] of 110 nM. The IC50 in experiment [2] was 435 nM.
Compound `O=C(NC/C(F)=C1\CCCc2cnn(Cc3ccc(Cl)cc3Cl)c21)NS(=O)(=O)c1ccc(Cl)cc1` [Compound #86, (Z)-4-chloro-N-((2-(1-(2,4-dichlorobenzyl)-1,4,5,6-tetrahydro-7H-indazol-7-ylidene)-2-fluoroethyl)carbamoyl)benzenesulfonamide] yielded an inhibition constant Ki in experiment [1] of 28 nM. Further, the IC50 in experiment [2] is 69 nM.
The corresponding values for `COc1ccc(Cl)cc1S(=O)(=O)NC(=O)NC/C=C1\CCCc2cnn(Cc3ccc(Cl)cc3Cl)c21` [Compound #43, (E)-5-chloro-N-((2-(1-(2,4-dichlorobenzyl)-1,4,5,6-tetrahydro-7H-indazol-7-ylidene)ethyl)carbamoyl)-2-methoxybenzenesulfonamide] are 3 nM and 8 nM.
`O=C(NC/C=C1\CCCc2cnn(Cc3ccc4ccccc4c3)c21)NS(=O)(=O)c1cc(Cl)c(Cl)s1` [Compound #88, (E)-4,5-dichloro-N-((2-(1-(naphthalen-2-ylmethyl)-1,4,5,6-tetrahydro-7H-indazol-7-ylidene)ethyl)carbamoyl)thiophene-2-sulfonamide] gave a Ki in experiment [1] of 104 nM. Also, the concentration for half-maximal inhibition (IC50) in experiment [2] is 554 nM.

Source of the values: US20210253562A1, “ACYLSUFONAMIDE COMPOUNDS USEFUL AS EP3 RECEPTOR ANTAGONISTS” (Janssen Pharmaceutica NV, priority 2018, published 2021).
